pIC50: −log10 of the molar value. Numbered stars: 1 amine (or outer) side, 2 acyl side, 3 side chain; on linkers, the order of the positions; unused ones are H or OH. Bridge positions count the residues as written; N and C are the ends. Square brackets hold non-standard residues; d marks the D form. Peptide text beside a SMILES is read from it. I, II: the chains in the order shown. Actinocin(1to9) = Cc1c2oc3c(C)ccc(C(=O)[*:2])c3nc-2c(C(=O)[*:1])c(N)c1=O; NMeV = CN[C@H](C(=O)O)C(C)C; Sar = CNCC(=O)O
What was measured:
[1] = test system: L1210; assay: Cytotoxicity against L1210 tumor cell line, activity is expressed as K (inverse value of drug concentration); type: functional, cell-based; details: Mus musculus
[2] = test system: Mus musculus; assay: Acute toxicity in mice (LD100) after i.p. administration; type: organism-based; details: in vivo, ip
[3] = Acute toxicity in mice (LD0) after i.p. administration (highest nontoxic dose); type: organism-based; details: mouse, in vivo, ip; read-out: LD0
[4] = test system: L1210; assay: Antitumor activity against L1210 leukemia cells measured as range of death at 15 mg/kg; value may range from 12 to 19; type: functional, Mus musculus
[5] = test system: L1210; assay: In vitro cytotoxicity against L1210 cell line as concentration required for 50% inhibition of cell growth; type: functional; details: Mus musculus, read-out: ID50 (the source's name)
[6] = test system: L1210; assay: Antitumor activity against L1210 leukemia cells measured as Median survival time at 15 mg/kg; type: functional, Mus musculus
[7] = test system: L1210; assay: Antitumor activity against L1210 leukemia cells measured as range of death at 12.5 mg/kg; value may range from 12 to 27; type: functional, Mus musculus
[8] = test system: L1210; assay: Antitumor activity against L1210 leukemia cells measured as Median survival time at 12.5 mg/kg; type: functional, Mus musculus
[9] = test system: L1210; assay: Antitumor activity against L1210 leukemia cells measured as range of death at 10 mg/kg; value may range from 16 to 42; type: functional, Mus musculus
[10] = test system: L1210; assay: Antitumor activity against L1210 leukemia cells measured as Median survival time at 10 mg/kg; type: functional, Mus musculus
[11] = test system: L1210; assay: Antitumor activity against L1210 leukemia cells measured as percent increase in life span (% ILS) at 10 mg/kg; type: functional; details: Mus musculus
[12] = test system: L1210; assay: Antitumor activity against L1210 leukemia cells measured as range of death at 10 mg/kg; value may range from 16 to 20; details: Mus musculus
[13] = test system: L1210; assay: Antitumor activity against L1210 leukemia cells measured as range of death at 2.5 mg/kg; value may range from 14 to 19; type: functional, Mus musculus
[14] = test system: L1210; assay: Antitumor activity against L1210 leukemia cells measured as Median survival time at 2.5 mg/kg; type: functional, Mus musculus
[15] = test system: L1210; assay: Antitumor activity against L1210 leukemia cells measured as Median survival time at 20 mg/kg; type: functional, Mus musculus
[16] = test system: L1210; assay: Antitumor activity against L1210 leukemia cells measured as range of death at 20 mg/kg; value may range from 14 to 25; type: functional, Mus musculus
[17] = test system: L1210; assay: Antitumor activity against L1210 leukemia cells measured as range of death at 10 mg/kg; value may range from 12 to 25; type: functional, Mus musculus
[18] = test system: L1210; assay: Antitumor activity against L1210 leukemia cells measured as range of death at 20 mg/kg; value may range from 14 to 17; type: functional, Mus musculus
[19] = test system: L1210; assay: Antitumor activity against L1210 leukemia cells measured as range of death at 10 mg/kg; value may range from 14 to 19; type: functional, Mus musculus
[20] = test system: L1210; assay: Antitumor activity against L1210 leukemia cells measured as range of death at 20 mg/kg; value may range from 9 to 12; type: functional, Mus musculus
[21] = test system: L1210; assay: Antitumor activity against L1210 leukemia cells measured as range of death at 20 mg/kg; value may range from 15 to 19; type: functional, Mus musculus
[22] = test system: L1210; assay: Antitumor activity against L1210 leukemia cells measured as range of death at 10 mg/kg; type: functional, Mus musculus
[23] = test system: L1210; assay: Antitumor activity against L1210 leukemia cells measured as Median survival time at 12 mg/kg; type: functional, Mus musculus
[24] = test system: L1210; assay: Antitumor activity against L1210 leukemia cells measured as range of death at 12 mg/kg; value may range from 12 to 14; type: functional, Mus musculus
[25] = test system: L1210; assay: Antitumor activity against L1210 leukemia cells measured as range of death at 2.5 mg/kg; value may range from 12 to 19; type: functional, Mus musculus
[26] = test system: L1210; assay: Antitumor activity against L1210 leukemia cells measured as range of death at 10 mg/kg; value may range from 8 to 20; type: functional, Mus musculus
[27] = test system: L1210; assay: Antitumor activity against L1210 leukemia cells measured as range of death at 25 mg/kg; value may range from 14 to 19; details: Mus musculus
[28] = test system: L1210; assay: Antitumor activity against L1210 leukemia cells measured as Median survival time at 25 mg/kg; type: functional, Mus musculus
[29] = test system: L1210; assay: Antitumor activity against L1210 leukemia cells measured as range of death at 15 mg/kg; value may range from 7 to 44; details: Mus musculus
[30] = test system: L1210; assay: Antitumor activity against L1210 leukemia cells measured as range of death at 15 mg/kg; value may range from 19 to 35; type: functional, Mus musculus
[31] = test system: L1210; assay: Antitumor activity against L1210 leukemia cells measured as range of death at 10 mg/kg; value may range from 8 to 28; type: functional, Mus musculus
[32] = test system: L1210; assay: Antitumor activity against L1210 leukemia cells measured as Median survival time at 3.75 mg/kg; type: functional, Mus musculus
[33] = test system: L1210; assay: Antitumor activity against L1210 leukemia cells measured as range of death at 3.75 mg/kg; value may range from 15 to 21; type: functional, Mus musculus

SMILES | K [1] | LD100 [2] | MTD [3] | pIC50 [5] | MST [10] | ILS at 10 mg/kg [11] | further results
CCN(CC)CCCNc1nccc2c(C)c3[nH]c4ccc(OC)cc4c3cc12 | 0.2 µM⁻¹ | 40 mg/kg | 20 mg/kg | 5.30 | – | – | Range of death [4]: 19 days; MST [6]: 14.3 days
CCN(CC)CC(O)CNc1nccc2c(C)c3[nH]c4ccncc4c3cc12 (stereo not given) | 20 µM⁻¹ | 40 mg/kg | 25 mg/kg | 7.30 | – | – | Range of death [7]: 27 days; MST [8]: 16.3 days
CCNCCCNc1nccc2c(C)c3[nH]c4ccncc4c3cc12 | 10 µM⁻¹ | 30 mg/kg | 20 mg/kg | 7.00 | 25 days | 114% | Range of death [9]: 42 days
CCN(CC)CCCNc1nccc2c(C)c3[nH]c4ccncc4c3c(C)c12 | 143 µM⁻¹ | 20 mg/kg | 10 mg/kg | 8.15 | 16.8 days | 46% | Range of death [12]: 20 days
Cc1c2oc3c(C)ccc(C(=O)N[C@@H]4C(=O)N[C@H](C(C)C)C(=O)N5CCC[C@H]5C(=O)N(C)CC(=O)N(C)[C@@H](C(C)C)C(=O)O[C@@H]4C)c3nc-2c(C(=O)N[C@@H]2C(=O)N[C@H](C(C)C)C(=O)N3CCC[C@H]3C(=O)N(C)CC(=O)N(C)[C@@H](C(C)C)C(=O)O[C@@H]2C)c(N)c1=O [DACTINOMYCIN] (I: T[dV]P[Sar][NMeV] / II: T[dV]P[Sar][NMeV]; ester I:1-I:C, II:1-II:C; linker I:N-II:N via Actinocin(1to9)) | 1000 µM⁻¹ | – | – | 9.00 | – | – | –
CCN(CC)CCCNc1nccc2c(C)c3[nH]c4ccc(O)cc4c3c(C)c12 | 33 µM⁻¹ | 10 mg/kg | 3 mg/kg | 7.52 | – | – | Range of death [13]: 19 days; MST [14]: 16.5 days
CCN(CC)CCCNc1nccc2c(C)c3[nH]c4ccncc4c3cc12 [PAZELLIPTINE] | 50 µM⁻¹ | 30 mg/kg | 25 mg/kg | 7.70 | – | – | MST [15]: 20.5 days; Range of death [16]: 25 days
CCNCCCNc1nccc2c(C)c3[nH]c4ccc(OC)cc4c3cc12 | 1.7 µM⁻¹ | 30 mg/kg | 20 mg/kg | 6.22 | 14.8 days | 26% | Range of death [17]: 25 days
Cc1c2ccnc(NCC(O)CO)c2cc2c3c[nH]ccc-3nc12 (stereo not given) | 4 µM⁻¹ | 60 mg/kg | 40 mg/kg | 6.60 | – | – | Range of death [18]: 17 days; MST [15]: 16 days
CCN(CC)CCCNc1nccc2c(C)c3c(c(C)c12)c1cc(O)ccc1n3C | 5 µM⁻¹ | 25 mg/kg | 12 mg/kg | 6.70 | 16.1 days | 66.5% | Range of death [19]: 19 days
CCN(CC)CCNc1nccc2c(C)c3c(cc12)c1cc(OC)ccc1n3C | 0.5 µM⁻¹ | 30 mg/kg | 20 mg/kg | 5.70 | – | – | MST [15]: 11 days; Range of death [20]: 12 days
CCN(CCCN)CCCNc1nccc2c(C)c3[nH]c4ccncc4c3cc12 | 5 µM⁻¹ | 40 mg/kg | 20 mg/kg | 6.70 | – | – | Range of death [21]: 19 days; MST [15]: 17 days
COc1ccc2[nH]c3c(C)c4ccnc(NCCCN(CCCl)CCCl)c4cc3c2c1 | 5 µM⁻¹ | 20 mg/kg | 15 mg/kg | 6.70 | 13.6 days | 26% | Range of death [22]: 12 days
CCN(CC)CCCNc1nccc2c(C)c3[nH]c4ccc(O)cc4c3cc12 | 50 µM⁻¹ | 7 mg/kg | 2.5 mg/kg | 7.70 | – | – | Range of death [13]: 19 days; MST [14]: 16.4 days
CCN(CC)CCCNc1nccc2c(C)c3c(cc12)c1cc(O)ccc1n3C | 16 µM⁻¹ | 25 mg/kg | 12.5 mg/kg | 7.22 | – | – | MST [23]: 13 days; Range of death [24]: 14 days
CCNCCCNc1nccc2c(C)c3c(c(C)c12)c1cc(O)ccc1n3C | 50 µM⁻¹ | 25 mg/kg | 10 mg/kg | 7.70 | – | – | Range of death [25]: 19 days; MST [14]: 14.5 days
Cc1c2c(NCCCN(C)C)nccc2c(C)c2c1c1cc(O)ccc1n2C | 33 µM⁻¹ | 50 mg/kg | 10 mg/kg | 7.52 | 16.3 days | 68% | Range of death [26]: 20 days
Cc1c2ccnc(NCCCN(CCO)CCO)c2cc2c3c[nH]ccc-3nc12 | 1.7 µM⁻¹ | 100 mg/kg | 30 mg/kg | 6.22 | – | – | Range of death [27]: 19 days; MST [28]: 15.5 days
Cc1c2ccnc(NCCCN(C)C)c2c(C)c2c1[nH]c1ccncc12 | 125 µM⁻¹ | 20 mg/kg | 15 mg/kg | 8.10 | – | – | Range of death [29]: 44 days; MST [6]: 25.2 days
CCN(CC)CCCNc1nccc2c(C)c3[nH]c4ccc(OC)cc4c3c(C)c12 [RETELLIPTINE] | 30 µM⁻¹ | 60 mg/kg | 15 mg/kg | 7.52 | – | – | Range of death [30]: 35 days; MST [6]: 29.5 days
CCNCCCNc1nccc2c(C)c3[nH]c4ccc(OC)cc4c3c(C)c12 | 10 µM⁻¹ | 20 mg/kg | 16 mg/kg | 7.00 | 20 days | 84% | Range of death [31]: 28 days
COc1ccc2[nH]c3c(C)c4ccnc(NCCCN(CCO)CCO)c4c(C)c3c2c1 | 2.5 µM⁻¹ | 15 mg/kg | 10 mg/kg | 6.40 | – | – | MST [32]: 18.4 days; Range of death [33]: 21 days
